Read-outs that look alike come from different tables or passages of the source.
Tests used:
[1] = test system: Puccinia triticina; test: Wheat Brown Rust fungicidal activity (PUCCRT); format: in vivo; settings: wheat, high volume, 100 ppm
Protocol: All fungicides were evaluated using the aforementioned method for their activity vs. all target diseases, unless stated otherwise. Wheat leaf blotch and brown rust activity were also evaluated using track spray applications, in which case the fungicides were formulated as EC formulations, containing 0.1% Trycol 5941 in the spray solutions. Wheat plants (variety Yuma) were grown from seed in a greenhouse in 50% mineral soil/50% soil-less Metro mix until the first leaf was fully emerged, with 7-10 seedlings per pot. These plants were inoculated with an aqueous spore suspension of Zymoseptoria tritici either prior to or after fungicide treatments. After inoculation the plants were kept in 100% relative humidity (one day in a dark dew chamber followed by two to three days in a lighted dew chamber at 20° C.) to permit spores to germinate and infect the leaf. The plants were then transferred to a greenhouse set at 20° C. for disease to develop. When disease symptoms were fully expressed on the 1st leaves of untreated plants, infection levels were assessed on a scale of 0 to 100 percent disease severity. Percent disease control was calculated using the ratio of disease severity on treated plants relative to untreated plants. Wheat plants (variety Yuma) were grown from seed in a greenhouse in 50% mineral soil/50% soil-less Metro mix until the first leaf was fully emerged, with 7-10 seedlings per pot. These plants were inoculated with an aqueous spore suspension of Puccinia triticina either prior to or after fungicide treatments. […] The plants were then transferred to a greenhouse set at 24° C. for disease to develop. Fungicide formulation, application and disease assessment followed the procedures as described in the Example A.

[2] = test system: Zymoseptoria tritici; test: Leaf Blotch of Wheat fungicidal activity (SEPTTR); format: in vivo; settings: wheat, high volume, 100 ppm
Protocol: All fungicides were evaluated using the aforementioned method for their activity vs. all target diseases, unless stated otherwise. Wheat leaf blotch and brown rust activity were also evaluated using track spray applications, in which case the fungicides were formulated as EC formulations, containing 0.1% Trycol 5941 in the spray solutions. Wheat plants (variety Yuma) were grown from seed in a greenhouse in 50% mineral soil/50% soil-less Metro mix until the first leaf was fully emerged, with 7-10 seedlings per pot. These plants were inoculated with an aqueous spore suspension of Zymoseptoria tritici either prior to or after fungicide treatments. After inoculation the plants were kept in 100% relative humidity (one day in a dark dew chamber followed by two to three days in a lighted dew chamber at 20° C.) to permit spores to germinate and infect the leaf. The plants were then transferred to a greenhouse set at 20° C. for disease to develop. When disease symptoms were fully expressed on the 1st leaves of untreated plants, infection levels were assessed on a scale of 0 to 100 percent disease severity. Percent disease control was calculated using the ratio of disease severity on treated plants relative to untreated plants.

[3] = 24 h, 1 Day Protectant, read-out: PUCCRT 1DP % Control rating
[4] = 72 h, 3 Day Curative, read-out: PUCCRT 3DC % Control rating
[5] = 24 h, 1 Day Protectant, read-out: SEPTTR 1DP % Control rating
[6] = 72 h, 3 Day Curative, read-out: SEPTTR 3DC % Control rating

Compound | pest or weed control at 100 ppm [1, 3] | pest or weed control at 100 ppm [1, 4] | pest or weed control at 100 ppm [2, 5] | pest or weed control at 100 ppm [2, 6]
COc1ccnc(C(=O)N[C@@H](C)C(=O)O[C@@H](C)[C@H](OCC2CC2)c2ccccc2)c1O [Example 113] | > 80% | < 80% | > 80% | > 80%
COc1ccnc(C(=O)N[C@@H](C)C(=O)O[C@@H](C)[C@H](Oc2ccccc2)c2ccccc2)c1O [Example 114] | > 80% | > 80% | > 80% | > 80%
COc1ccnc(C(=O)N[C@@H](C)C(=O)O[C@H](C)[C@@H](Oc2ccccc2)c2ccccc2)c1O [Example 115] | < 0% | > 80% | < 0% | < 80%
COc1ccnc(C(=O)N[C@H](C)C(=O)O[C@H](C)[C@@H](Oc2ccccc2)c2ccccc2)c1O [Example 116] | < 0% | < 0% | < 0% | < 80%
COc1ccnc(C(=O)N[C@@H](C)C(=O)O[C@@H](C)[C@H](Oc2ccccc2Cl)c2ccccc2)c1O [Example 117] | > 80% | > 80% | > 80% | > 80%
COc1ccnc(C(=O)N[C@@H](C)C(=O)O[C@@H](C)[C@H](Oc2cccc(Cl)c2)c2ccccc2)c1O [Example 118] | > 80% | > 80% | > 80% | > 80%
COc1ccnc(C(=O)N[C@@H](C)C(=O)O[C@@H](C)[C@H](Oc2ccc(Cl)cc2)c2ccccc2)c1O [Example 119] | > 80% | > 80% | < 80% | > 80%
COc1ccnc(C(=O)N[C@@H](C)C(=O)O[C@@H](C)[C@H](Oc2ccc(Cl)cc2Cl)c2ccccc2)c1O [Example 120] | > 80% | < 80% | > 80% | < 80%
COc1ccnc(C(=O)N[C@@H](C)C(=O)O[C@@H](C)[C@H](Oc2cc(F)ccc2F)c2ccccc2)c1O [Example 121] | > 80% | < 80% | < 80% | > 80%
COc1ccnc(C(=O)N[C@@H](C)C(=O)O[C@@H](C)[C@H](Oc2cc(F)cc(Cl)c2)c2ccccc2)c1O [Example 122] | > 80% | > 80% | > 80% | > 80%
CC[C@H](NC(=O)c1nccc(OC)c1O)C(=O)O[C@@H](C)[C@H](Oc1cc(F)ccc1F)c1ccccc1 [Example 123] | > 80% | < 80% | < 80% | < 80%
CC[C@H](NC(=O)c1nccc(OC)c1O)C(=O)O[C@@H](C)[C@H](Oc1cc(F)cc(Cl)c1)c1ccccc1 [Example 124] | > 80% | > 80% | > 80% | > 80%
COc1ccnc(C(=O)N[C@@H](C)C(=O)O[C@@H](C)[C@H](Oc2ccc(C(F)(F)F)cc2)c2ccccc2)c1O [Example 125] | < 80% | < 0% | < 80% | < 80%
COc1ccnc(C(=O)N[C@H](C(=O)O[C@@H](C)[C@H](Oc2ccc(C(F)(F)F)cc2)c2ccccc2)C(C)C)c1O [Example 126] | < 80% | < 0% | < 0% | < 80%
COc1ccnc(C(=O)N[C@@H](C)C(=O)O[C@@H](C)[C@H](Oc2cccc(F)c2)c2ccccc2)c1O [Example 127] | > 80% | > 80% | > 80% | > 80%
COc1ccnc(C(=O)N[C@@H](Cc2ccccc2)C(=O)O[C@@H](C)[C@H](Oc2cccc(F)c2)c2ccccc2)c1O [Example 128] | > 80% | < 80% | < 0% | < 80%
COc1ccnc(C(=O)N[C@@H](C)C(=O)O[C@@H](C)[C@@H](Oc2ccccc2)c2cccs2)c1O [Example 129] | < 80% | < 80% | > 80% | < 80%
COc1ccnc(C(=O)N[C@@H](C)C(=O)O[C@@H](C)[C@H](OCC2CC2)c2cccc(-c3ccccc3)c2)c1O [Example 131] | < 80% | < 80% | < 0% | < 80%
COc1ccnc(C(=O)N[C@@H](C)C(=O)O[C@@H](C)[C@H](Oc2ccccc2)c2nccs2)c1O [Example 132] | > 80% | < 80% | < 80% | < 0%
COc1ccnc(C(=O)N[C@@H](C)C(=O)O[C@@H](C)[C@H](Oc2cccc(F)c2)c2cccc(-c3ccccc3)c2)c1O [Example 133] | < 80% | < 0% | < 0% | < 0%
COc1ccnc(C(=O)N[C@@H](C)C(=O)O[C@@H](C)[C@@H](Oc2ccc(Cl)cc2Cl)c2ccccc2)c1O [Example 134] | > 80% | > 80% | > 80% | < 80%
COc1ccnc(C(=O)N[C@@H](C)C(=O)O[C@@H](C)[C@@H](Oc2ccccc2)c2ccccc2)c1O [Example 135] | > 80% | < 0% | > 80% | > 80%
COc1ccnc(C(=O)N[C@@H](C)C(=O)O[C@@H](C)[C@@H](OCC(C)C)c2ccccc2)c1O [Example 136] | < 0% | < 80% | < 80% | < 0%
CCCO[C@H](c1ccccc1)[C@H](C)OC(=O)[C@H](C)NC(=O)c1nccc(OC)c1O [Example 137] | > 80% | > 80% | > 80% | > 80%
CCCO[C@@H](c1ccccc1)[C@H](C)OC(=O)[C@H](C)NC(=O)c1nccc(OC)c1O [Example 138] | > 80% | > 80% | < 80% | < 80%
COc1ccnc(C(=O)N[C@@H](C)C(=O)O[C@@H](C)[C@@H](OC)c2ccccc2)c1O [Example 140] | < 80% | > 80% | < 0% | < 80%
COc1ccnc(C(=O)N[C@@H](C)C(=O)O[C@@H](C)[C@@H](OCC2CC2)c2ccccc2)c1O [Example 142] | > 80% | > 80% | < 80% | < 80%
COc1ccnc(C(=O)N[C@@H](C)C(=O)O[C@@H](C)[C@H](Oc2ccccc2)c2ccc(-c3ccccc3)cc2)c1O [Example 144] | > 80% | < 80% | > 80% | < 80%
COc1ccnc(C(=O)N[C@@H](C)C(=O)O[C@@H](C)[C@H](Oc2ccccc2)c2cccc(-c3ccccc3)c2)c1O [Example 145] | > 80% | < 80% | > 80% | > 80%
COc1ccnc(C(=O)N[C@@H](C)C(=O)O[C@@H](C)[C@H](Oc2ccc(F)cc2)c2ccccc2)c1O [Example 146] | > 80% | > 80% | > 80% | > 80%
